From patent publication US20080051429A1, “USE OF 4-AMINO-PIPERIDINES FOR TREATING SLEEP DISORDERS” (priority 2006, published 2008)

Key:
m5 = target: T1, m5 (Homo sapiens, UniProt P08912); experiment: R-SAT broad profiling; format: cell-based; settings: agonist; read-out: pEC50 or pIC50 (converted)
T1 construct: expressed in transfected cells; host or cells: NIH3T3
T1 sequence (P08912 1-532): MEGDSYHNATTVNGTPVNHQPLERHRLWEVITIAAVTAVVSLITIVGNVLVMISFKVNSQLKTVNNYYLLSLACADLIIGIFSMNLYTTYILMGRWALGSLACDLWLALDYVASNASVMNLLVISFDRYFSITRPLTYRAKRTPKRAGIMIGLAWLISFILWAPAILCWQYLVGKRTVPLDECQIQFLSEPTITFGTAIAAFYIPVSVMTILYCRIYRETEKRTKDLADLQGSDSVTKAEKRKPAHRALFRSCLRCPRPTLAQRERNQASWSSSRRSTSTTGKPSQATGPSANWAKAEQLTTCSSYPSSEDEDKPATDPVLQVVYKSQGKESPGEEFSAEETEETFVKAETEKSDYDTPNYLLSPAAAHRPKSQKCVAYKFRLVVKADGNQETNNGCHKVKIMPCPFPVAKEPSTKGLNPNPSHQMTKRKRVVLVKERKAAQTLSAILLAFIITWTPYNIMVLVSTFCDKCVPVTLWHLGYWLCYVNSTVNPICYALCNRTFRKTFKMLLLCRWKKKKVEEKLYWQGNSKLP
Procedure: (§1) The functional receptor assay, Receptor Selection and Amplification Technology (R-SAT), was used (with minor modifications from that previously described U.S. Pat. No. 5,707,798) to screen compounds for efficacy at the 5-HT2A receptor. Briefly, NIH3T3 cells were grown in 96 well tissue culture plates to 70-80% confluence. Cells were transfected for 12-16 hours with plasmid DNAs using superfect (Qiagen Inc.) as per manufacture's protocols. R-SAT's were generally performed with 50 ng/well of receptor and 20 ng/well of Beta-galactosidase plasmid DNA. All receptor and G-protein constructs used were in the pSI mammalian expression vector (Promega Inc) as described in U.S. Pat. No. 5,707,798. The 5HT2A receptor gene was amplified by nested PCR from brain cDNA using the oligodeoxynucleotides based on the published sequence (see Saltzman et. al. Biochem. Biophys. Res. Comm. 181:1469-78 (1991)). Large-scale transfections, cells were transfected for 12-16 hours, then trypsinized and frozen in DMSO. Frozen cells were later thawed, plated at 10,000-40,000 cells per well of a 96 well plate that contained drug. With both methods, cells were then grown in a humidified atmosphere with 5% ambient CO2 for five days. Media was then removed from the plates and marker gene activity was measured by the addition of the beta-galactosidase substrate ONPG (in PBS with 5% NP-40). The resulting colorimetric reaction was measured in a spectrophotometric plate reader (Titertek Inc.)at […]. All data were analyzed using the computer program XLFit (IDBSm). Efficacy is the percent maximal repression compared to repression by a control compound (ritanserin in the case of 5HT2A). pIC50 is the negative of the log(IC50), where IC50 is the calculated concentration in Molar that produces 50% maximal repression.
(§2) The R-SAT assay (described above in example 289) was used to investigate the selectivity of 4-(4-Fluoro-benzyl)-3-(4-isobutoxy-benzyl)-8-methyl-1-oxa-3,8-diaza-spiro[4.5]decan-2-one.

m4 = target: T2, m4 (Homo sapiens, UniProt P08173); experiment: R-SAT broad profiling; format: cell-based; settings: agonist; read-out: pEC50 or pIC50 (converted)
T2 construct: expressed in transfected cells; host or cells: NIH3T3
T2 sequence (P08173 1-479): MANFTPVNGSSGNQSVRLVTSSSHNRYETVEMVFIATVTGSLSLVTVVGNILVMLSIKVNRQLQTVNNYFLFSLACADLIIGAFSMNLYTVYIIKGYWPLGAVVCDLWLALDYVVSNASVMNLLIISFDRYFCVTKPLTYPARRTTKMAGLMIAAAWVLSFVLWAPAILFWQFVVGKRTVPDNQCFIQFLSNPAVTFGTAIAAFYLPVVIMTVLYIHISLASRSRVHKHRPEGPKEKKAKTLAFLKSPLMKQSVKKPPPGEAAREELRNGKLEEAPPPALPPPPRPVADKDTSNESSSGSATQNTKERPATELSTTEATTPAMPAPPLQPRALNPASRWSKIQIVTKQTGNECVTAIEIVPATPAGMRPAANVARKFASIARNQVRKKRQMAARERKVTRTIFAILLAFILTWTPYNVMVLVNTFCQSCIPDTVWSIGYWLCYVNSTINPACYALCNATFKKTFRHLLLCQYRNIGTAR
Procedure: as §1, §2

alpha 2A = target: T3, alpha 2A (Homo sapiens, UniProt P08913); experiment: R-SAT broad profiling; format: cell-based; settings: agonist; read-out: pEC50 or pIC50 (converted)
T3 construct: expressed in transfected cells; host or cells: NIH3T3
T3 sequence (P08913 1-465): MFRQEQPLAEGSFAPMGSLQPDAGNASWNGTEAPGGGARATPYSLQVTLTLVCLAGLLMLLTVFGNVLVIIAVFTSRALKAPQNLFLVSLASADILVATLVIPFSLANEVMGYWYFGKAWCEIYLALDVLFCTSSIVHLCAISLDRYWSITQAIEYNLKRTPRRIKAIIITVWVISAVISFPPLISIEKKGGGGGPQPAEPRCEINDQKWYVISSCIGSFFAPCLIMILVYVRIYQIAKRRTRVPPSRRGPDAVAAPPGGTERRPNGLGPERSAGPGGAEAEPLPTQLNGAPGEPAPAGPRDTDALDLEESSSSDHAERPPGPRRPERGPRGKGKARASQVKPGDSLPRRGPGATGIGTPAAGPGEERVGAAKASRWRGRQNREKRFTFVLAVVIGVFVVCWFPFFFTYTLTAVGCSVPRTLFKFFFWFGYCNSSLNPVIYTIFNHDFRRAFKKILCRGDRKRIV
Procedure: as §1, §2

D3 = target: T4, D3 (Homo sapiens, UniProt P35462); experiment: R-SAT broad profiling; format: cell-based; settings: read-out: pEC50 or pIC50 (converted)
T4 construct: expressed in transfected cells; host or cells: NIH3T3
Procedure: as §1, §2

healthy volunteers = experiment: Continuous Performance Test (CPT); format: in vivo, human
Procedure: Performance Assessment: A Continuous Performance Test (CPT; Rosvold M E, Mirsky A F, Sarason I, Bransome E R Jr., Beck L H (1956) A continuous performance test for brain damage. J Consult Psychol 20:343-350, which is incorporated herein by reference in its entirety), was used to evaluate attention and vigilance. The test was administered both during the evening and the morning following the baseline PSG on Day 1 and the evaluation PSG on Day 13. Participants were rapidly presented a numerical train with a target number as point of reference. Participants pushed a button rapidly when the target number appeared in the number list. The procedure lasted three minutes. The number of targets detected and the number of false alarms were assessed.

T4 sequence (P35462 whole entry): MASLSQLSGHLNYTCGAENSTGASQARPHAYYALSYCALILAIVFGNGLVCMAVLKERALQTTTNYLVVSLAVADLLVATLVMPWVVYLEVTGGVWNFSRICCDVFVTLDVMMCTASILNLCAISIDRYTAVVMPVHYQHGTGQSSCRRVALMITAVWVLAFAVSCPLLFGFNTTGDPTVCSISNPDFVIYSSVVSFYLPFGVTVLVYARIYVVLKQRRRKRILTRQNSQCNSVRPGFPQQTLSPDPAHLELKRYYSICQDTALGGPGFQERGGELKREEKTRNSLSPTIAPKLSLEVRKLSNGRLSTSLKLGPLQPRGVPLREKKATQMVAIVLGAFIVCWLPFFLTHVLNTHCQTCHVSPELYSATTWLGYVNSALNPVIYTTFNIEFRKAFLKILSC

Row | SMILES | EC50 (m5) [µM] | EC50 (m4) [µM] | EC50 (alpha 2A) [µM] | EC50 (D3; agonist) [µM] | IC50 (D3; antagonist) [µM] | CPT detected targets and false alarm change scores (healthy volunteers; any dose, evening and morning (p>0.10)) | daytime functioning (healthy volunteers; in words)
1 | CC(C)COc1ccc(CN2C(=O)OC3(CCN(C)CC3)C2Cc2ccc(F)cc2)cc1.Cl (racemic) [Example 69NLS75, 4-(4-Fluorobenzyl)-3-(4-isobutoxybenzyl)-8-methyl-1-oxa-3,8-diazaspiro[4.5]decan-2-one, hydrochloride] | > 3.16 | > 3.16 | > 3.16 | > 3.16 | > 3.16 |  | 
2 | CC(C)COc1ccc(CNC(=O)N(Cc2ccc(F)cc2)C2CCN(C)CC2)cc1 [N-(1-methylpiperidin-4-yl)-N-(4-fluorophenylmethyl)-N′-(4-(2-methylpropyloxy)phenylmethyl)carbamide] |  |  |  |  |  | absence of effect | did not impair
